Laboratory results reported in ChEMBL document CHEMBL1155186, “O-Spiro C-aryl glucosides as novel sodium-dependent glucose co-transporter 2 (SGLT2) inhibitors” (Bioorg Med Chem Lett, 2009).

Tests used:
[1] = target: T1, Sodium/glucose cotransporter 1 (Homo sapiens) (UniProt P13866); conditions: COS-7, 10 uM
T1 sequence (whole entry): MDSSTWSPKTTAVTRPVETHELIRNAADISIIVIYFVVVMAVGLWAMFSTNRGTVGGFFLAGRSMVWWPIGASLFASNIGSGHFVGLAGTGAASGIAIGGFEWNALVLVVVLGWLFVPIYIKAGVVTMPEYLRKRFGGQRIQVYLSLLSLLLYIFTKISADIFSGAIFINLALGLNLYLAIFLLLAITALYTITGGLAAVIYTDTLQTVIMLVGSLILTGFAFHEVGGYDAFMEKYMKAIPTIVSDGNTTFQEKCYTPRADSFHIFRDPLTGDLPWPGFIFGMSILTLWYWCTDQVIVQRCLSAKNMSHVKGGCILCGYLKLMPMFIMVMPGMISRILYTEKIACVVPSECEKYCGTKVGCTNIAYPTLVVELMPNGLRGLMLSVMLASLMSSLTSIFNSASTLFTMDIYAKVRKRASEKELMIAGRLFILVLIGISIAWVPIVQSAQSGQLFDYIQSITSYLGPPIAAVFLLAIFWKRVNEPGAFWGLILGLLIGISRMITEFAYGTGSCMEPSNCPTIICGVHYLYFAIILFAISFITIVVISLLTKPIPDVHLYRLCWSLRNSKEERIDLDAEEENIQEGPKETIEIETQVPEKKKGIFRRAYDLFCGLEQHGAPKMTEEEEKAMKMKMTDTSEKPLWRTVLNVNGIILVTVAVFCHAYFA
Description: Inhibition of human SGLT1 expressed in african green monkey COS7 cells assessed as methyl-alpha-D-[U-14C]glucopyranoside uptake at 10 uM by scintillation counting

[2] = target: T2, Sodium/glucose cotransporter 2 (Homo sapiens) (UniProt P31639); conditions: 10 nM
T2 sequence (whole entry): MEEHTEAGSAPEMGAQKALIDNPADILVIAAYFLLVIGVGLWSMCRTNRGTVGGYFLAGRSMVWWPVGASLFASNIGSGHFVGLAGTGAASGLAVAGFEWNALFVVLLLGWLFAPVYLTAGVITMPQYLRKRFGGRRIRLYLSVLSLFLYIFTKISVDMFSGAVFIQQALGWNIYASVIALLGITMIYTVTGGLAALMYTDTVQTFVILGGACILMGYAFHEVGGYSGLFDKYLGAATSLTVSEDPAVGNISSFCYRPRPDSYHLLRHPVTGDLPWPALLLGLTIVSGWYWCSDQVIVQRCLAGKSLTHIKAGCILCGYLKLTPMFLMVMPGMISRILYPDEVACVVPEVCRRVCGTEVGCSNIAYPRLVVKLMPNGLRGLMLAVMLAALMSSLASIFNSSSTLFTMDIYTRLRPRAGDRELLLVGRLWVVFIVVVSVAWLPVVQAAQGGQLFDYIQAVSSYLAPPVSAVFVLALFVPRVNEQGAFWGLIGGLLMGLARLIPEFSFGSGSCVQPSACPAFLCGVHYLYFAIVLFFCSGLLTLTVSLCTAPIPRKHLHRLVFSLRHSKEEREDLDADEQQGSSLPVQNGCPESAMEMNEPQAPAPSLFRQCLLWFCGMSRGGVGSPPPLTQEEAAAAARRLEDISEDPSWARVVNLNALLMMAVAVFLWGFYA
Description: Inhibition of human SGLT2 expressed in HEK293.ETN cells assessed as methyl-alpha-D-[U-14C]glucopyranoside uptake at 10 nM by scintillation counting

Compound `CCOc1ccc(Cc2cc([C@@H]3O[C@H](CO)[C@@H](O)[C@H](O)[C@H]3O)ccc2Cl)cc1` has an inhibition [1] of 72.7% and an inhibition [2] of 69.7%.
